# Molecular target: Voltage-dependent T-type calcium channel subunit alpha-1G (Homo sapiens, UniProt O43497)
# Test: In Vitro Cav3.1 Single Point and IC50 (VDB) Data
# Protocol: The compound plate was created at 2× concentrated in the extracellular solution. The compound was diluted to 1:2 when added to the recording well. The amount of DMSO in the extracellular solution was held constant at the level used for the highest tested concentration. For the voltage clamp experiments on Cav3.1, data were sampled at 10 KHz. After establishment of the seal and the passage in the whole cell configuration, the cells were held at −120 mV. Cav3.1 current was evoked using a 100 ms step to −20 mV (to measure resting state block), followed by a 1600 ms step to −65 mV and a second 100 ms step to −20 mV (to measure voltage dependent block). The voltage protocol was applied every 15 seconds in the absence and in the presence of the compounds under investigation. […] Current amplitude (pA) was measured in the peak 1 and 2. The average of last 3 sweeps of each liquid period (vehicle, compound under investigation, full block) was calculated. Nickel-sensitive current was used to calculate the % of inhibition in the presence of the compound under investigation.
# Sequence of Voltage-dependent T-type calcium channel subunit alpha-1G (O43497 whole entry): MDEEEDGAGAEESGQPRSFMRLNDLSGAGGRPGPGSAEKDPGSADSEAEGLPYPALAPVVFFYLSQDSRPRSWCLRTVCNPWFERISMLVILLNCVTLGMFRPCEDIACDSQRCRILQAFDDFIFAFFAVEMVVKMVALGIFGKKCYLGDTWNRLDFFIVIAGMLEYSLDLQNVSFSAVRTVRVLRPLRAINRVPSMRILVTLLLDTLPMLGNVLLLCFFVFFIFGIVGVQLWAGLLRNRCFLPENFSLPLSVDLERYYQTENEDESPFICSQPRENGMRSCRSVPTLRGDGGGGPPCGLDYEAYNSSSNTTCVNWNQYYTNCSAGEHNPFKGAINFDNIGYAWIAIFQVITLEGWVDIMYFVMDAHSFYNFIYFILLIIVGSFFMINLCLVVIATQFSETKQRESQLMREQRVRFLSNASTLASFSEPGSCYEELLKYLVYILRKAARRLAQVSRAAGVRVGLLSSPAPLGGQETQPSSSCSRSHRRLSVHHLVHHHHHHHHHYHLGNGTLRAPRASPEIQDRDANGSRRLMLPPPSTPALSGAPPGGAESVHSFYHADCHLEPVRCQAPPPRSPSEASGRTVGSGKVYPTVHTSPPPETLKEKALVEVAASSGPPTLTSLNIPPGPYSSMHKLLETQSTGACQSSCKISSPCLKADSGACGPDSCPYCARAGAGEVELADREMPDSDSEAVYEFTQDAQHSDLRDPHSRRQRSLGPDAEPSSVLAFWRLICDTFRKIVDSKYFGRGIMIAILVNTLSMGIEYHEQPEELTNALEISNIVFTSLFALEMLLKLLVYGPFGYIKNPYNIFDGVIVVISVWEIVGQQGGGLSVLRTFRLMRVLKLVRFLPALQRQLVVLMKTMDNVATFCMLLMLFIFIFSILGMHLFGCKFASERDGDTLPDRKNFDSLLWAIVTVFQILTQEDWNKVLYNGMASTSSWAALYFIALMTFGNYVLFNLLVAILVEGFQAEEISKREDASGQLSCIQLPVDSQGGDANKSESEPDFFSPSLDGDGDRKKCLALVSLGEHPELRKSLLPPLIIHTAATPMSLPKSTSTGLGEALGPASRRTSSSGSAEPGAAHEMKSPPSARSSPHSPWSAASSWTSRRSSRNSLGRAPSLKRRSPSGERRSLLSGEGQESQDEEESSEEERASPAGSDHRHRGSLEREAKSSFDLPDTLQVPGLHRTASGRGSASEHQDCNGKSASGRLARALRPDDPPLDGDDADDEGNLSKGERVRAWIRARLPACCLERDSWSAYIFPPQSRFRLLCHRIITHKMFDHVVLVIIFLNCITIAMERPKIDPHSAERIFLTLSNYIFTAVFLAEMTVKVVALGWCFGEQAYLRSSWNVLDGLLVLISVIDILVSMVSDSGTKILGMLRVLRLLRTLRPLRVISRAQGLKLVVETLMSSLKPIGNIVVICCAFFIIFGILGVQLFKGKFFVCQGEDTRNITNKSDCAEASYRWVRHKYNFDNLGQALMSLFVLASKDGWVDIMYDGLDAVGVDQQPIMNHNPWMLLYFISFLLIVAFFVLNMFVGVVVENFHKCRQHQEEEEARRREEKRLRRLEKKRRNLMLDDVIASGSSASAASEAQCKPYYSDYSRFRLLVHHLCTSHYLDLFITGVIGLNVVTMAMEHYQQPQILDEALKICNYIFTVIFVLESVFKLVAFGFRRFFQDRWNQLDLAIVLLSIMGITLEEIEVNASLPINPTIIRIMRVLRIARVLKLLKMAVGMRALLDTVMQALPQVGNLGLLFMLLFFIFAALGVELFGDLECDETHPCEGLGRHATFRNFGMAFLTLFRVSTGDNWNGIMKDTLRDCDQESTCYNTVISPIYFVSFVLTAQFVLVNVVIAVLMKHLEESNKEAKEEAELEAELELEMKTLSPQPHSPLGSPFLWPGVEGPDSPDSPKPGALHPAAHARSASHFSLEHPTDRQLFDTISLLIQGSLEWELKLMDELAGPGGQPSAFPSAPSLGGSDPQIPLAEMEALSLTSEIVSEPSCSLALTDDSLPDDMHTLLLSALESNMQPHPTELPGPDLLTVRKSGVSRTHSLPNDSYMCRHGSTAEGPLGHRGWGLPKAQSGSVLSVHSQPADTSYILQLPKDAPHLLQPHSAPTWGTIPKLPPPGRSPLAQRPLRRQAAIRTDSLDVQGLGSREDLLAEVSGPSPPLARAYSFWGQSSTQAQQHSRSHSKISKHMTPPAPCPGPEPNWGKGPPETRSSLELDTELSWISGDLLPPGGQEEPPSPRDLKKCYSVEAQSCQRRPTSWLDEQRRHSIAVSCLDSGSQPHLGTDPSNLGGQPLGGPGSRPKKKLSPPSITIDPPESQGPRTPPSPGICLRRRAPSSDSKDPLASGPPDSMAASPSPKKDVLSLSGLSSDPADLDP
row,Structure (SMILES),IC50
1,"COc1cc(F)cc(NC(=O)C2CCC3(CC2)CN(CC(=O)NC(C)(C)C)C3)c1 [US20250214932, Example 46]",218 nM
2,"Cc1cc(F)cc(NC(=O)C2CCC3(CC2)CN(CC(=O)NC(C)(C)C)C3)c1 [US20250214932, Example 48]",196 nM
3,"O=C(Nc1cc(F)cc(C(F)F)c1)C1CCC2(CC1)CN(CCNC(=O)C1(C(F)(F)F)CCC1)C2 [US20250214932, Example 52]",261 nM
4,"O=C(Nc1cc(F)cc(Cl)c1)C1CCC2(CC1)CN(CC(O)C1CCCCC1)C2 (centres undefined) [US20250214932, Example 68]",170 nM
5,"O=C(CN1CC2(CCC(C(=O)Nc3cc(F)cc(C(F)F)c3)CC2)C1)NC1(C(F)(F)F)CC1 [US20250214932, Example 79]",< 78.2 nM
6,"O=C(CN1CC2(CCC(C(=O)Nc3cc(F)cc(C(F)F)c3)CC2)C1)NC1(C(F)(F)F)CCC1 [US20250214932, Example 85]",163 nM
7,"O=C(Nc1cc(F)cc(C(F)F)c1)C1CCC2(CC1)CN(CC(F)(F)C1CCCC1)C2 [US20250214932, Example 100]",407 nM
8,"COc1cc(Cl)cc(NC(=O)C2CCC3(CC2)CN(CC2(C#N)CC2)C3)c1 [US20250214932, Example 129]",1360 nM
9,"O=C(NC12CC3CC(CC(C3)C1)C2)C1CCC2(CC1)CN(CC1(O)CCC(F)(F)CC1)C2 [US20250214932, Example 153]",188 nM
